Results reported in PubChem BioAssay AID1963958 (Molecular Pharmacology Branch, DTP, NCI, 2024).
One block for each compound: values may come before it.

System: MDA-MB-231 multicell spheroids, viability
Test: Anticancer human tumor MDA-MB-231 cell line growth inhibition [PI3K];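 further: spheroids exposed to agents for seven days before reading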;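 on viability, T/C: percent of vehicle control luminescence with DMSO treated spheroids as 100%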
Conditions: for IC50: curve of first compound; for viability, T/C: stronger effect = lower value
Summary of the method: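 Complex 3D spheroids (cancer cells + endothelial HUVEC + mesenchymal stem cells); drug pairs of targeted agent x inavolisib/alpelisib/duvelisib/copanlisib; half-log series from ~Cmax, max 10 microM if Cmax unknown; endpoint viability.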

[1] = second compound 0.0316 µM, first compound 0.0316 µM
[2] = second compound 0.0316 µM, first compound 0.1 µM
[3] = second compound 0.0316 µM, first compound 0.316 µM
[4] = second compound 0.0316 µM, first compound 1 µM
[5] = second compound 0.0316 µM, first compound 3.16 µM
[6] = second compound 0.0316 µM, first compound 10 µM
[7] = second compound 0.1 µM, first compound 0.0316 µM
[8] = second compound 0.1 µM, first compound 0.1 µM
[9] = second compound 0.1 µM, first compound 0.316 µM
[10] = second compound 0.1 µM, first compound 1 µM
[11] = second compound 0.1 µM, first compound 3.16 µM
[12] = second compound 0.1 µM, first compound 10 µM
[13] = second compound 0.316 µM, first compound 0.0316 µM
[14] = second compound 0.316 µM, first compound 0.1 µM
[15] = second compound 0.316 µM, first compound 0.316 µM
[16] = second compound 0.316 µM, first compound 1 µM
[17] = second compound 0.316 µM, first compound 3.16 µM
[18] = second compound 0.316 µM, first compound 10 µM
[19] = second compound 1 µM, first compound 0.0316 µM
[20] = second compound 1 µM, first compound 0.1 µM
[21] = second compound 1 µM, first compound 0.316 µM
[22] = second compound 1 µM, first compound 1 µM
[23] = second compound 1 µM, first compound 3.16 µM
[24] = second compound 1 µM, first compound 10 µM
[25] = second compound 3.16 µM, first compound 0.0316 µM
[26] = second compound 3.16 µM, first compound 0.1 µM
[27] = second compound 3.16 µM, first compound 0.316 µM
[28] = second compound 3.16 µM, first compound 1 µM
[29] = second compound 3.16 µM, first compound 3.16 µM
[30] = second compound 3.16 µM, first compound 10 µM
[31] = second compound 10 µM, first compound 0.0316 µM
[32] = second compound 10 µM, first compound 0.1 µM
[33] = second compound 10 µM, first compound 0.316 µM
[34] = second compound 10 µM, first compound 1 µM
[35] = second compound 10 µM, first compound 3.16 µM
[36] = second compound 10 µM, first compound 10 µM

IC50 (second compound 0.0316 µM): > 10 µM
IC50 (second compound 0.1 µM): > 10 µM
IC50 (second compound 0.316 µM): > 10 µM
IC50 (second compound 1 µM): > 10 µM
IC50 (second compound 3.16 µM): > 10 µM
IC50 (second compound 10 µM): > 10 µM
Structure (SMILES): C=CC(=O)N1CCN(c2nc(=O)n(-c3c(C)ccnc3C(C)C)c3nc(-c4c(O)cccc4F)c(F)cc23)C(C)C1 (centres undefined) + CC(Nc1ncnc2nc[nH]c12)c1cc2cccc(Cl)c2c(=O)n1-c1ccccc1
viability, T/C [1]: 104%
viability, T/C [2]: 110%
viability, T/C [3]: 115%
viability, T/C [4]: 134%
viability, T/C [5]: 131%
viability, T/C [6]: 118%
viability, T/C [7]: 111%
viability, T/C [8]: 103%
viability, T/C [9]: 113%
viability, T/C [10]: 132%
viability, T/C [11]: 131%
viability, T/C [12]: 118%
viability, T/C [13]: 101%
viability, T/C [14]: 98.7%
viability, T/C [15]: 111%
viability, T/C [16]: 115%
viability, T/C [17]: 133%
viability, T/C [18]: 114%
viability, T/C [19]: 86.9%
viability, T/C [20]: 90.1%
viability, T/C [21]: 95.7%
viability, T/C [22]: 106%
viability, T/C [23]: 108%
viability, T/C [24]: 96%
viability, T/C [25]: 66.5%
viability, T/C [26]: 70.9%
viability, T/C [27]: 73.5%
viability, T/C [28]: 79.5%
viability, T/C [29]: 88.2%
viability, T/C [30]: 78.4%
viability, T/C [31]: 51%
viability, T/C [32]: 52.5%
viability, T/C [33]: 55.5%
viability, T/C [34]: 59%
viability, T/C [35]: 58.5%
viability, T/C [36]: 54.6%

IC50 (second compound 0.0316 µM): > 10 µM
IC50 (second compound 0.1 µM): > 10 µM
IC50 (second compound 0.316 µM): > 10 µM
IC50 (second compound 1 µM): > 10 µM
IC50 (second compound 3.16 µM): > 10 µM
IC50 (second compound 10 µM): < 0.0316 µM
Structure (SMILES): CC(Cn1ccc(-c2ccc(C#N)c(Cl)c2)n1)NC(=O)c1cc(C(C)O)[nH]n1 (centres undefined) + CC(Nc1ncnc2nc[nH]c12)c1cc2cccc(Cl)c2c(=O)n1-c1ccccc1
viability, T/C [1]: 100%
viability, T/C [2]: 95.7%
viability, T/C [3]: 99.6%
viability, T/C [4]: 98.5%
viability, T/C [5]: 96%
viability, T/C [6]: 82.3%
viability, T/C [7]: 92.9%
viability, T/C [8]: 98.3%
viability, T/C [9]: 97.9%
viability, T/C [10]: 95.2%
viability, T/C [11]: 92.4%
viability, T/C [12]: 78.4%
viability, T/C [13]: 81.9%
viability, T/C [14]: 93%
viability, T/C [15]: 95%
viability, T/C [16]: 88.5%
viability, T/C [17]: 87.9%
viability, T/C [18]: 75.7%
viability, T/C [19]: 70.6%
viability, T/C [20]: 79.4%
viability, T/C [21]: 78.4%
viability, T/C [22]: 79.5%
viability, T/C [23]: 72.2%
viability, T/C [24]: 64.5%
viability, T/C [25]: 61.3%
viability, T/C [26]: 61%
viability, T/C [27]: 61.4%
viability, T/C [28]: 56.2%
viability, T/C [29]: 56.9%
viability, T/C [30]: 49.2%
viability, T/C [31]: 47%
viability, T/C [32]: 44.3%
viability, T/C [33]: 47.8%
viability, T/C [34]: 45.5%
viability, T/C [35]: 42%
viability, T/C [36]: 36%
